Literature values as cited in patent US7196076B2, “Androgen receptor modulators and methods of use thereof” (Merck & Co., Inc., priority 2001, dated 2007).
Where a name gives a salt, the structure may show the parent alone.

Experiments:
[1] = after 7 years of treatment
[2] = median of 22 months of treatment

Compound | increase in spinal BMD [1] [%] | reduction in nonvertebral fractures [2] [%] | reduction in spine fractures [2] [%]
NCCCC(O)(P(=O)(O)O)P(=O)(O)O [alendronate, 4-amino-1-hydroxybutylidene-1,1-bisphosphonic acid monosodium salt, trihydrate] | 11 | – | –
hPTH(1–34): human parathyroid hormone 1–34 fragment (SVSEIQLMHNLGKHLNSMERVEWLRKKLQDVHNF; Parathyroid hormone; UniProt P01270 32-65, looked up, fragment) | – | 54 | ≥ 65
